Like-named read-outs stand apart in the source and are kept apart here.
Assays:
[1] = target: T1, HCV NS5B RdRp (NS5BCdelta21) (Hepatitis C virus genotype 1b, UniProt P26663); test: HCV NS5B RNA-dependent RNA polymerase (RdRp) assay, poly rA/U12 primer-dependent elongation; format: biochemical; details: for inhibition at 100 µM: read-out: Anti-NS5B Activity (% Inhibition, 100 µM); for inhibition at 200 µM: read-out: Anti-NS5B Activity (% Inhibition, 200 µM)
T1 construct: 500 ng of NS5BCdelta21; made in house; host or cells: Escherichia coli DH5alpha
Description: The RdRp activity of NS5B was evaluated by the standard primer-dependent elongation reactions employing poly rA/U12 template-primers (TP). Reaction mixtures containing 20 mM Tris-HCl (pH 7.0), 100 mM NaCl, 100 mM Na-glutamate, 0.5 mM DTT, 0.01% BSA, 0.01% Tween-20, 5% glycerol, 20 U/ml of RNasin, 0.5 microM of poly rA/U12, 25 microM UTP, 2-5 microCi [alpha-32P]UTP, 500 ng of NS5BCdelta21 and 0.5 mM MnCl2 with or without inhibitors in a total volume of 25 microliters were incubated for 1 h at 30°C. Reactions were quenched by the addition of ice cold 5% (v/v) trichloroacetic acid (TCA) containing 0.5 mM pyrophosphate (PPi), the denatured polymeric RNA products were transferred to GF-B filters and the amount of radioactive UMP incorporated into RNA products was quantified on a liquid scintillation counter (Packard). The concentrations of the compounds inhibiting 50% of NS5B RdRp activity (IC50) were calculated from the inhibition curves as a function of inhibitor concentration. Nsp12 activity was similarly evaluated except that incubations were carried out at 25°C for optimal enzymatic activity.
The ability of the compounds to inhibit HCV NS5B RdRp activity was investigated in vitro by polyrA-U12 extension assay as described in experimental section by Kaushik-Basu N, et al.. The compounds SGK 224-230, 313 and SGK 238- 244, 315 were reconstituted in DMSO as 50 mM stocks, and serially diluted in DMSO to obtain working stocks.
Preliminary screening was carried out at 100 µM to identify a wider range of compounds. […] NS5B RdRp activity in the absence of the inhibitor was taken as 100 percent after subtraction of residual background activity. The concentration of DMSO in all reactions was kept constant at 5%. […] Curves were fitted to data points using nonlinear regression analysis and IC50 values were interpolated from the resulting curves using GraphPad Prism 3.03 software.

[2] = target: T1, HCV NS5B RdRp (NS5BCdelta21); test: as above; format: biochemical; details: read-out: Anti-HCV Activity (%Inhibition, 100 µM)
[3] = dose-response curves, 8-10 concentrations, duplicate, two independent experiments, read-out: IC50

T1 sequence (P26663 2420-2989): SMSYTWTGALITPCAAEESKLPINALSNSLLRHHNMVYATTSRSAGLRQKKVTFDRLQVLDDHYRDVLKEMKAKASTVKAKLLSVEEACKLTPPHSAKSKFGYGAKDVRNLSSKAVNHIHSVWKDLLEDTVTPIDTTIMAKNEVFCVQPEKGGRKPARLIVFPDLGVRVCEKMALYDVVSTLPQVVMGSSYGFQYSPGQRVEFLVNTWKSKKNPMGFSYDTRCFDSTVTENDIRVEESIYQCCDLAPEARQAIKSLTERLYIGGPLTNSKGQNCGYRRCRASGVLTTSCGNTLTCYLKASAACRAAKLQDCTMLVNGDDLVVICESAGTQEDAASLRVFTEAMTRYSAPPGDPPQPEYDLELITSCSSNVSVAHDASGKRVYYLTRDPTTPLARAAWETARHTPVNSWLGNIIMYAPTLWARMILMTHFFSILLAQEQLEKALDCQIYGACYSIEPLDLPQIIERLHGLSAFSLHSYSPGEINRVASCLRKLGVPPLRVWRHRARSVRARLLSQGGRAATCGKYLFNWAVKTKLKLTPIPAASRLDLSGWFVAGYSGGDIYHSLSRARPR

Row | SMILES | IC50 [1, 3] | inhibition at 100 µM [1] | inhibition at 200 µM [1] | IC50 [1] | inhibition at 100 µM [2]
1 | CCc1cccc2c3c([nH]c12)C(CC)(CC(=O)NNC(=S)NC)OCC3 (stereo not drawn) [SGK 224, 1-[2-(1,8-diethyl-1,3,4,9-tetrahydropyrano[3,4-b]indol-1-yl)acetyl]-4-methyl thiosemicarbazide] | 18.7 µM | 76.2 ± 0.5% | 77.5 ± 1.3% |  | 
2 | CCc1cccc2c3c([nH]c12)C(CC)(Cc1n[nH]c(=S)n1C)OCC3 (stereo not drawn) [SGK 238, 5-[(1,8-diethyl-1,3,4,9-tetrahydropyrano[3,4-b]indol-1-yl)methyl]-4-methyl-2,4-dihydro-3H-1,2,4-triazole-3-thione] |  | 78.9 ± 0.7% | 86 ± 0.6% | 14.8 µM | 
3 | CCc1cccc2c3c([nH]c12)C(CC)(CC(=O)NN)OCC3 (stereo not drawn) [SGK 197, 2-(1,8-diethyl-1,3,4,9-tetrahydropyrano[3,4-b]indole-1-yl)acetohydrazide] |  | 11.4 ± 0.2% | 19 ± 4.4% |  | 
4 | COc1cc(O)c2c(c1)oc(=O)c1c3cc(O)c(O)cc3oc21 [Wedelolacton, reference compound] | 36 µM |  |  |  | 
5 | CCc1cccc2c3c([nH]c12)C(CC)(CC(=O)NN=Cc1cccc(F)c1)OCC3 (stereo not drawn) [SGK 202, 2-(1,8-Diethyl-1,3,4,9-tetrahydropyrano[3,4-b]indole-1-yl) acetic acid [(3-fluorophenyl)methylene] hydrazide] |  | 61.6 ± 0.4% | 66.4 ± 5.8% | 35.9 ± 1.4 µM | 
6 | CCc1cccc2c3c([nH]c12)C(CC)(CC(=O)OC)OCC3 (racemic) [SGK 196, methyl (1,8-diethyl-1,3,4,9-tetrahydropirano[3,4-b]indole-1-yl) acetate] |  | 6.4 ± 0.9% | 13.3 ± 1.2% |  | 
7 | CCc1cccc2c3c([nH]c12)C(CC)(CC(=O)O)OCC3 (racemic) [Etodolac, (R,S)-2-[1,8-diethyl-1,3,4-tetrahydrapyrano[3,4-b]indole-1-yl]acetic acid] |  |  |  |  | 7.4%
8 | C=CCNC(=S)NNC(=O)CC1(CC)OCCc2c1[nH]c1c(CC)cccc21 (stereo not drawn) [SGK 229, 1-[2-(1,8-Diethyl-1,3,4,9-tetrahydropyrano[3,4-b]indole-1-yl)acetyl]-4-allyl thiosemicarbazide] | 16.8 ± 1.2 µM | 78.6 ± 2.1% | 81.6 ± 0.8% |  | 

— EP2864333B1, “ETODOLAC DERIVATIVES AS HCV NS5B POLYMERASE INHIBITORS” (priority 2012, dated 2014)
